# From US11590117B2, “Treatment of a hematologic malignancy with 2-(4-chlorophenyl)-n-((2-(2,6-dioxopiperidin-3-yl)-1-oxoisoindolin-5-yl)methyl)-2,2-difluoroacetamide” (priority 2016, dated 2023)
# Where two headings read alike, the source gives them in different places.
# Columns and labels:
# Type in all cases: cell-based
# [1] = tested on: Bone marrow CD34+ cells from healthy donors (myeloid differentiation); experiment: Neutrophil maturation ex vivo, bone marrow CD34+ cells, flow cytometry
# Protocol: Compound 1 effects on the proliferation of CFU-GM progenitor cells are of special relevance because of the role of these progenitor cells in drug-induced neutropenia. Neutrophils are derived from CFU-GM progenitors occurring through distinct stages, from progenitor cells through myeloblasts (stage I), promyelocytes (stage II) and myelocytes (stage III) that finally mature towards neutrophils with banded or segmented nuclei. The effects of Compound 1 on neutrophil maturation were determined by using two-dimensional cultivation of progenitors followed by flow cytometry. Bone marrow CD34+ cells obtained from healthy volunteers were transferred to tissue culture medium and myeloid differentiation was induced ex vivo by adding stem cell factor (SCF), Fms-related tyrosine kinase 3 ligand (Flt-3 ligand), and granulocyte colony stimulating factor (G-CSF). Concentrations of Compound 1 up to 30 nM and exposure times of 8, 24, and 72 hours starting at Day 0 were selected to evaluate the effect of Compound 1 in this system. After exposure to Compound 1, cells were washed and then incubated in culture medium in the absence of Compound 1 until Day 14. Cell differentiation and apoptosis were measured in a flow cytometry-based method at Days 3, 7, 10, and 14 of culture, with apoptotic and dead cells identified as Annexin V positive and 7-aminoactinomycin D positive.
# In FIG. 34, Bone marrow C34+ cells from healthy donors were incubated with 30 nM Compound 1 or DMSO. Compound 1 was washed out after 8, 24 or 72 hours, the medium was replaced, and the cultures were incubated until Day 14 in the absence of Compound 1 or DMSO. Cells were classified from most immature to most mature as HPC, Stage I, Stage II, Stage III and Stage IV according to their expression of CD34, CD33 and CD11b. Then apoptotic cells from each stage were identified as positive for Annexin V and labeled as AV+ HPC, AV+ Stage I, AV+ Stage II, AV+ Stage II and AV+ Stage IV. […] Representative results are shown for bone marrow progenitors from one of two healthy donors evaluated. […]
# AML-193 = experiment: IncuCyte live cell imaging of cell viability, Red-labeled cell line; settings: Homo sapiens, Red-labeled AML-193, read-out: Inhibition of Cell Viability EC50
# Protocol: (§1) Derivation of Red-labeled Acute Myeloid Leukemia Cell Lines: Twelve cell lines, including AML-193, HL-60, KG-1, ML-2, MOLM-13, MV-4-11, NOMO-1, OCI-AML2, OCI-AML3, SIG-M5, TF-1, and THP-1, were stably transduced with Red lentivirus. Cells were plated in 6-well plates in growth media, incubated with 8 µg/mL polybrene (EMD Millipore Cat no. TR-1003-G) followed by infection with CellPlayer™ NucLight™ Red-lentiviral particles (Essen Biosciences Cat no. 4478) at a multiplicity of infectivity (MOI) of 0.5 to 2.5 for 24 hours. MOI refers to the ratio of virus particles to cells. Virus-containing media was replaced with fresh growth media and incubated for an additional 24 to 48 hours, followed by selection with Zeocin (500 to 2000 μg/mL), a derivative of bleomycin (Life Technologies-Invitrogen Cat no. R250-01). Cells were selected with fresh Zeocin every 3 to 4 days for 3 to 8 weeks. Cells were periodically viewed using fluorescent microscopy for nuclear-restricted red fluorescence. Zeocin selection was terminated once the population was confirmed to stably fluoresce red. All Red-labeled cell lines were acclimated to EMEM containing 20% FBS, with or without GM-CSF supplementation, allowing for optimal live cell imaging.
# (§2) Incubation of Cell Cultures with Compound 1: Compound 1 was provided for studies by Celgene chemistry group at a stock concentration of 30 mM in 20 μL dimethyl sulfoxide (DMSO) frozen. Costar 96-well cell culture plates (Corning Cat no. 3595) were coated with 100 μL of 10 µg/mL fibronectin (Sigma-Aldrich Cat no. F1141) for 4 hours at 37° C. and immediately used or refrigerated overnight for later use. Cells (3000 to 6000 cells) were plated in growth medi in fibronectin-coated 96-well plates and incubated for a minimum of a few hours to overnight. Cells were incubated with a 12-point concentration response in triplicate with Compound 1 ([…]) including DMSO and Media controls. A 3-fold serial dilution of Compound 1 starting from a concentration of 200 μM in 0.6% DMSO (diluted in Media) was performed. For most sensitive cell lines, a 3-fold serial dilution of Compound 1 starting from a concentration of 20 μM in 0.6% DMSO (diluted in media) was performed. A volume of 5 μL or 10 μL for each dilution was added to 100 μL or 200 μL cells, respectively (0.3% DMSO final) and incubated for live cell imaging.
# (§3) Live Cell Imaging on IncuCyte Zoom: Following incubation of cells with Compound 1, diluted Caspase 3/7 reagent (Essen Biosciences Cat no. 4440) is added to each well. The Caspase-3/7 reagent couples the activated caspase-3/7 recognition motif (DEVD) to NucView™488, a DNA intercalating dye. The cleavage of substrate by activated caspase-3/7 results in the release of the DNA dye and green fluorescent staining of nuclear DNA. This allows imaging of cells undergoing caspase-3/7 mediated apoptosis over time. Caspase-3/7 activation was quantified using the IncuCyte™ ZOOM basic analyzer. Red-labeled cell lines were also imaged over time using the IncuCyte™ ZOOM basic analyzer, for determination of both cell doubling time and Compound 1 effect on cell viability. Experiments were performed at least two times in each cell line.
# (§4) Next, a 4 parameter log-logistic model was used to determine relative EC50 at each time point by the ‘drm’ function from the R ‘drc’ package (Ritz C, Streibig J C. Bioassay Analysis using R. J. Statist. Software 2005; 12(5):1-22). Goodness of fit was measured by R squared (coefficient of determination or the amount of variation explained by the model fit) of ≥80%, and EC50 parameter was assessed by having a ratio of standard error to the parameter of ≤40%, and the presence of at least one concentration point above and below the reported EC50.
# (§5) Twelve Red-labeled human AML cell lines, established as described above, were incubated with Compound 1 dose range (0 to 10 μM) and Red fluorescence or Object count was imaged over time, as described above. […]
# MOLM-13 = experiment: as above; settings: Homo sapiens, Red-labeled MOLM-13, read-out: Inhibition of Cell Viability EC50
# Protocol: as §1, §2, §3, §4, §5
smiles,measurement,setting,value
"O=C1CCC(N2Cc3cc(CNC(=O)C(F)(F)c4ccc(Cl)cc4)ccc3C2=O)C(=O)N1 (stereo not shown) [Compound 1, 2-(4-chlorophenyl)-N-((2-(2,6-dioxopiperidin-3-yl)-1-oxoisoindolin-5-yl)methyl)-2,2-difluoroacetamide]",viability during neutrophil maturation,"[1]; 30 nM (highest concentration tested), exposure 24 hours and 72 hours",decreased
same,cell viability after removal of Compound 1,"[1]; 30 nM, cultures exposed for 24 hours",reaching control values at Day 10
same,viability during neutrophil maturation,"[1]; ≤3 nM in 24-hour and 72-hour exposure groups, or 0.03 to 30 nM with 8 hours exposure",no reduction in viability
same,EC50,AML-193; 24 hr,10 nM
same,EC50,AML-193; 48 hr,4 nM
same,EC50,AML-193; 72 hr,3 nM
same,EC50,AML-193; 96 hr,2 nM
same,EC50,MOLM-13; 48 hr,143 nM
same,EC50,MOLM-13; 72 hr,208 nM
same,EC50,MOLM-13; 96 hr,248 nM
